{"source": "patent US6677354B2", "about": "“Piperdines for use as orexin receptor antagonists” (SmithKline Beecham p.l.c., priority 2000, dated 2004)", "key": {"[1]": {"tested_on": "food intake in freely-feeding rats", "conditions": "central administration, 4 hour time period; cited from earlier work"}, "orexin receptors": {"tested_on": "orexin receptors", "test": "Rat sleep/EEG studies after central administration", "format": "in vivo", "conditions": "central administration at the onset of the normal sleep period", "description": "Therefore antagonists of its receptor may be useful in the treatment of sleep disorders including insomnia."}}, "data": [{"substance": "orexin-A: \"orexin-A, an agonist of the orexin receptors\"; \"Human orexin-A has the amino acid sequence: pyroGlu Pro Leu Pro Asp Cys Cys Arg Gln Lys Thr Cys...\"", "values": [{"measurement": "increase in food intake over control rats receiving vehicle", "setting": "[1]", "result": "approximately four-fold"}, {"measurement": "effect on arousal and sleep", "setting": "orexin receptors", "result": "dose-related increase in arousal"}]}]}
